Patent US20230210831A1, “CHRONIC KIDNEY DISEASE TREATMENT OR PREVENTION METHOD” (Japan Tobacco Inc., priority 2019, published 2023)

Legend:
Format in all cases: cell-based
[1] = test system: Salmonella typhimurium TA98; experiment: Ames test (reverse mutation test), TA98
Protocol: (§1) The solvent used herein was dimethyl sulfoxide (DMSO, 100 µL/plate).
(§2) The mixtures were preincubated at 37° C. for 20 minutes while shaking. […] Two plates per treatment were used.

[2] = test system: Salmonella typhimurium TA1537; experiment: Ames test (reverse mutation test), TA1537
Protocol: as §1, §2

[3] = test system: Salmonella typhimurium TA100; experiment: Ames test (reverse mutation test), TA100
Protocol: as §1, §2

[4] = test system: Salmonella typhimurium TA1535; experiment: Ames test (reverse mutation test), TA1535
Protocol: as §1, §2

Escherichia coli WP2uvrA = experiment: Ames test (reverse mutation test), WP2uvrA
Protocol: as §1, §2

Nc1cc(-c2cccc(OCC(F)(F)F)c2)n(-c2ccc(F)cc2)n1 [Metabolite E]
Number of revertant colonies TA98 ([1]; S9 Mix +, dose 2.3 µg/plate): 589
Number of revertant colonies TA98 ([1]; S9 Mix +, dose 6.9 µg/plate): 1310
Number of revertant colonies TA98 ([1]; S9 Mix +, dose 21 µg/plate): 1001
Number of revertant colonies TA98 ([1]; S9 Mix +, dose 62 µg/plate): 490
Number of revertant colonies TA98 ([1]; S9 Mix +, dose 185 µg/plate): 268
Number of revertant colonies TA98 ([1]; S9 Mix +, dose 556 µg/plate): 77
Number of revertant colonies TA98 ([1]; S9 Mix +, dose 1667 µg/plate): 15
Number of revertant colonies TA98 ([1]; S9 Mix +, dose 5000 µg/plate): 12
Number of revertant colonies TA98 ([1]; S9 Mix -, dose 2.3 µg/plate): 26
Number of revertant colonies TA98 ([1]; S9 Mix -, dose 6.9 µg/plate): 27
Number of revertant colonies TA98 ([1]; S9 Mix -, dose 21 µg/plate): 28
Number of revertant colonies TA98 ([1]; S9 Mix -, dose 62 µg/plate): 32
Number of revertant colonies TA98 ([1]; S9 Mix -, dose 185 µg/plate): 17
Number of revertant colonies TA98 ([1]; S9 Mix -, dose 556 µg/plate): 12
Number of revertant colonies TA98 ([1]; S9 Mix -, dose 1667 µg/plate): 6
Number of revertant colonies TA98 ([1]; S9 Mix -, dose 5000 µg/plate): 2
potential to induce reverse mutations ([1]; TA98 with S9 mix): showed potential to induce reverse mutations
Number of revertant colonies TA1537 ([2]; S9 Mix +, dose 2.3 µg/plate): 65
Number of revertant colonies TA1537 ([2]; S9 Mix +, dose 6.9 µg/plate): 227
Number of revertant colonies TA1537 ([2]; S9 Mix +, dose 21 µg/plate): 180
Number of revertant colonies TA1537 ([2]; S9 Mix +, dose 62 µg/plate): 102
Number of revertant colonies TA1537 ([2]; S9 Mix +, dose 185 µg/plate): 85
Number of revertant colonies TA1537 ([2]; S9 Mix +, dose 556 µg/plate): 0
Number of revertant colonies TA1537 ([2]; S9 Mix +, dose 1667 µg/plate): 0
Number of revertant colonies TA1537 ([2]; S9 Mix +, dose 5000 µg/plate): 0
Number of revertant colonies TA1537 ([2]; S9 Mix -, dose 2.3 µg/plate): 17
Number of revertant colonies TA1537 ([2]; S9 Mix -, dose 6.9 µg/plate): 20
Number of revertant colonies TA1537 ([2]; S9 Mix -, dose 21 µg/plate): 16
Number of revertant colonies TA1537 ([2]; S9 Mix -, dose 62 µg/plate): 11
Number of revertant colonies TA1537 ([2]; S9 Mix -, dose 185 µg/plate): 3
Number of revertant colonies TA1537 ([2]; S9 Mix -, dose 556 µg/plate): 0
Number of revertant colonies TA1537 ([2]; S9 Mix -, dose 1667 µg/plate): 0
Number of revertant colonies TA1537 ([2]; S9 Mix -, dose 5000 µg/plate): 0
potential to induce reverse mutations ([2]; TA1537 with S9 mix): showed potential to induce reverse mutations
potential to induce reverse mutations ([2]; TA1537 without S9 mix): showed potential to induce reverse mutations
Number of revertant colonies TA100 ([3]; S9 Mix +, dose 2.3 µg/plate): 1338
Number of revertant colonies TA100 ([3]; S9 Mix +, dose 6.9 µg/plate): 2032
Number of revertant colonies TA100 ([3]; S9 Mix +, dose 21 µg/plate): 2016
Number of revertant colonies TA100 ([3]; S9 Mix +, dose 62 µg/plate): 2320
Number of revertant colonies TA100 ([3]; S9 Mix +, dose 185 µg/plate): 1799
Number of revertant colonies TA100 ([3]; S9 Mix +, dose 556 µg/plate): 1082
Number of revertant colonies TA100 ([3]; S9 Mix +, dose 1667 µg/plate): 182
Number of revertant colonies TA100 ([3]; S9 Mix +, dose 5000 µg/plate): 157
Number of revertant colonies TA100 ([3]; S9 Mix -, dose 2.3 µg/plate): 110
Number of revertant colonies TA100 ([3]; S9 Mix -, dose 6.9 µg/plate): 96
Number of revertant colonies TA100 ([3]; S9 Mix -, dose 21 µg/plate): 96
Number of revertant colonies TA100 ([3]; S9 Mix -, dose 62 µg/plate): 101
Number of revertant colonies TA100 ([3]; S9 Mix -, dose 185 µg/plate): 75
Number of revertant colonies TA100 ([3]; S9 Mix -, dose 556 µg/plate): 38
Number of revertant colonies TA100 ([3]; S9 Mix -, dose 1667 µg/plate): 27
Number of revertant colonies TA100 ([3]; S9 Mix -, dose 5000 µg/plate): 0
potential to induce reverse mutations ([3]; TA100 with S9 mix): showed potential to induce reverse mutations
Number of revertant colonies TA1535 ([4]; S9 Mix +, dose 1667 µg/plate): 0
Number of revertant colonies TA1535 ([4]; S9 Mix -, dose 556 µg/plate): 0
Number of revertant colonies TA1535 ([4]; S9 Mix -, dose 1667 µg/plate): 0
potential to induce reverse mutations ([4]; TA1535 with S9 mix): showed potential to induce reverse mutations
Number of revertant colonies WP2uvrA (Escherichia coli WP2uvrA; S9 Mix +, dose 2.3 µg/plate): 26
Number of revertant colonies WP2uvrA (Escherichia coli WP2uvrA; S9 Mix +, dose 6.9 µg/plate): 32
Number of revertant colonies WP2uvrA (Escherichia coli WP2uvrA; S9 Mix +, dose 21 µg/plate): 24
Number of revertant colonies WP2uvrA (Escherichia coli WP2uvrA; S9 Mix +, dose 62 µg/plate): 30
Number of revertant colonies WP2uvrA (Escherichia coli WP2uvrA; S9 Mix +, dose 185 µg/plate): 18
Number of revertant colonies WP2uvrA (Escherichia coli WP2uvrA; S9 Mix +, dose 556 µg/plate): 19
Number of revertant colonies WP2uvrA (Escherichia coli WP2uvrA; S9 Mix +, dose 1667 µg/plate): 13
Number of revertant colonies WP2uvrA (Escherichia coli WP2uvrA; S9 Mix +, dose 5000 µg/plate): 12
Number of revertant colonies WP2uvrA (Escherichia coli WP2uvrA; S9 Mix -, dose 2.3 µg/plate): 20
Number of revertant colonies WP2uvrA (Escherichia coli WP2uvrA; S9 Mix -, dose 6.9 µg/plate): 26
Number of revertant colonies WP2uvrA (Escherichia coli WP2uvrA; S9 Mix -, dose 21 µg/plate): 24
Number of revertant colonies WP2uvrA (Escherichia coli WP2uvrA; S9 Mix -, dose 62 µg/plate): 27
Number of revertant colonies WP2uvrA (Escherichia coli WP2uvrA; S9 Mix -, dose 185 µg/plate): 22
Number of revertant colonies WP2uvrA (Escherichia coli WP2uvrA; S9 Mix -, dose 556 µg/plate): 10
Number of revertant colonies WP2uvrA (Escherichia coli WP2uvrA; S9 Mix -, dose 1667 µg/plate): 15
Number of revertant colonies WP2uvrA (Escherichia coli WP2uvrA; S9 Mix -, dose 5000 µg/plate): 7
